Test results reported in patent publication US9314458B2, “Topical use of ingenol-3-angelate or a salt thereof to treat skin cancer” (LEO Laboratories Limited, priority 2000, dated 2016).

Assays:
Format in all cases: cell-based
PKCθ = biological target: T1, PKCθ (Homo sapiens, UniProt Q04759); assay: EGFP-PKC translocation in HeLa cells (PKCθ); details: one hour, same concentrations
T1 construct: host or cells: HeLa cells
Experimental: (§1) Five EGFP-PKC isoforms (Clontech) were available for this experiment, enabling the screening of the three predominant PKC families (i.e. classical, novel and atypical PKCs). The members of the various PKC families are α, β, and γ (classical), θ (novel) and ζ (atypical).
(§2) HeLa cells were plated out in a 24-well plate containing coverslips and transfected with PKC isoforms fused to EGFP, using a commercially available effectine-transfection kit (QIAGEN, Pty. Ltd.). Cells were exposed to the transfection reagents for 16-24 hr. Subsequently, transfected cells were treated for one hour with TPA (100 ng/mL), bryostatin-1 (5 pg/mL), PEP003 (2.25 μg/mL; 5 μM) or PEP005 ([…]) 1.5 μM). Following treatment, cells were fixed on coverslips and mounted on glass slides. The slides were subsequently examined visually by fluorescence microscopy, photographed, and over 150 cells were counted/treatment/PKC isoform. Counted cells were classified according to the localisation of the PKC-EGFP fluorescence as either cytoplasmic or plasma membrane using ImagePro™ 4.1 (FIG. 5). […] The number of these cells was also counted. Results are presented as an average and standard deviation of percentages of cells (Table 1).

PKCα = biological target: T2, PKCα (Homo sapiens, UniProt P17252); details: HeLa, one hour
T2 construct: host or cells: HeLa cells
Experimental: as §1
as §2, with “counted.” for “counted. Results are presented as an average and standard deviation of percentages of cells (Table 1).”

[1] = test system: HIV-1 LAI strain in U1 cells; assay: Activation of latent HIV from U1 cells (p24 ELISA); details: 20 hr culture
From the text: A latently HIV-1 infected cell line (U1), derived from the promonocytic cell line U937 after infection with HIV-1 LAI strain, was used in these experiments. In the absence of activation, no or little virus (measured as p24 production) is produced by the U1 cell line. Phorbol esters are known to activate virus production from these cells (Tobiume et al., 1998) and so TPA/PMA was used as a positive control in these experiments.
Supernatants were collected and viral replication monitored by determination of the amounts of HIV p24 gag protein in the culture supernatants by ELISA, using a NEN Life Science HIV-1 p24 ELISA kit. p24 values were calculated from OD values using a standard curve.

T1 sequence (Q04759 whole entry): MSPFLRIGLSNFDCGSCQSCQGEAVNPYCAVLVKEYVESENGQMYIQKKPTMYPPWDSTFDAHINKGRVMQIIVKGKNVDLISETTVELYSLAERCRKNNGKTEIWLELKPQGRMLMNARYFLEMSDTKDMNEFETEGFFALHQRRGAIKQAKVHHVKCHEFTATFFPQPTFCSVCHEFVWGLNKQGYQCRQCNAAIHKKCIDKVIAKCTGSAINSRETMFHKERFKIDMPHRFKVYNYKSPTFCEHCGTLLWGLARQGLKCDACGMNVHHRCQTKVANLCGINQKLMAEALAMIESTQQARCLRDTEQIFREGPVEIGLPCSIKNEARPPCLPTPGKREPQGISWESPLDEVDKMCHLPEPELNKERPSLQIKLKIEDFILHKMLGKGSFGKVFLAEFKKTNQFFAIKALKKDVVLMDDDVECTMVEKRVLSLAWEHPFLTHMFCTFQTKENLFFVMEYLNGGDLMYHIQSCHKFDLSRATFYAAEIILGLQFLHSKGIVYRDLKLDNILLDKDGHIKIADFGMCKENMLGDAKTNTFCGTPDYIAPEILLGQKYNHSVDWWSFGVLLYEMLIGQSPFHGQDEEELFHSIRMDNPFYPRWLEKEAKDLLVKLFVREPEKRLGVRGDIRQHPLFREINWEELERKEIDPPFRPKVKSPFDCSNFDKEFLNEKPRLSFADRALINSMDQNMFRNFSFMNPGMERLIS

Compound: CCCCCCCCCCCCCC(=O)O[C@@H]1[C@@H](C)[C@@]2(O)[C@@H](C=C(CO)C[C@]3(O)C(=O)C(C)=C[C@@H]23)C2C(C)(C)[C@@]21OC(C)=O (single isomer, unassigned) [TPA]
- translocation of PKCθ (PKCθ): translocated
- number of PKCα transfected cells displaying Golgi-like fluorescence (PKCα): increase in the number of cells displaying Golgi-like fluorescence
- translocation of PKCα from cytoplasm to plasma membrane (PKCα; TPA 100 ng/mL, bryostatin-1 5 pg/mL, PEP003 2.25 μg/mL (5 μM)): translocated from the cytoplasm to the plasma membrane
- activation of HIV from U1 cells (p24 production) [1]: activated HIV from U1 cells
